What was measured:
Acetylcholinesterase = Acetylcholinesterase (Electrophorus electricus, UniProt O42275)
Cholinesterase = Cholinesterase (Equus caballus, UniProt P81908)
[1] = target: T1, Amine oxidase [flavin-containing] A (Homo sapiens, UniProt P21397); type: ADME
T1 sequence (P21397 whole entry): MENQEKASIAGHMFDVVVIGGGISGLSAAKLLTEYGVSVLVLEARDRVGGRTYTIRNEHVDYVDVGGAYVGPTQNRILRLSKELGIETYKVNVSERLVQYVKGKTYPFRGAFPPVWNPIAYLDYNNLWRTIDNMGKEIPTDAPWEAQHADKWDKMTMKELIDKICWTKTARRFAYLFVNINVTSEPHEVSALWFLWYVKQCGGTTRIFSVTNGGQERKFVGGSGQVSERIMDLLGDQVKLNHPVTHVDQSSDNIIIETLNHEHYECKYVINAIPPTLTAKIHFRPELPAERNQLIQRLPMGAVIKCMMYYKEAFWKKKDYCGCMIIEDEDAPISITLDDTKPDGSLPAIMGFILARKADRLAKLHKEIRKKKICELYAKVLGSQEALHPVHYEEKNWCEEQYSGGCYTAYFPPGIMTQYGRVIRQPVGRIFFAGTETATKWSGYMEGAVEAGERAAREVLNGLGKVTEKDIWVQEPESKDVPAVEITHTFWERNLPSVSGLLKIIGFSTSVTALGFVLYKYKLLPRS
Description: Inhibition of recombinant human MAO-A assessed as reduction in 4-hydroxyquinolone production using kynuramine as substrate after 20 mins by fluorescence assay

Sequence of Acetylcholinesterase (O42275 whole entry): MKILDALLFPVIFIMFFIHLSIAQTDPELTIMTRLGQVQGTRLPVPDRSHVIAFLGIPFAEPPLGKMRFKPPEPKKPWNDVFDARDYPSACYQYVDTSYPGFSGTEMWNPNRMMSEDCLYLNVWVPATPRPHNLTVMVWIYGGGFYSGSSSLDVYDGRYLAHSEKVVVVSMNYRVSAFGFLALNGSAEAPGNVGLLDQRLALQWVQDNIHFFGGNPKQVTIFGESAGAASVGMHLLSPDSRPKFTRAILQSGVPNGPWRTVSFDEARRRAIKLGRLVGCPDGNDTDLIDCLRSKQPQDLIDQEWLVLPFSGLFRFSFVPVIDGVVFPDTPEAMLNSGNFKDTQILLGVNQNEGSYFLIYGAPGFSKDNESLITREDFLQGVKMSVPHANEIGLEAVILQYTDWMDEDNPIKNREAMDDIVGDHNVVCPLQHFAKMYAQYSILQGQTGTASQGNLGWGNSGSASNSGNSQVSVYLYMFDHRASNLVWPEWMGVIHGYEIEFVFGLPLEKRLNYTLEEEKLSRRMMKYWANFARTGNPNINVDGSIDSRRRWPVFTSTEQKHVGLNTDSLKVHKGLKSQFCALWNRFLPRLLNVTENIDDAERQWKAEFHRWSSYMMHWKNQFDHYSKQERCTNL
Sequence of Cholinesterase (P81908 whole entry): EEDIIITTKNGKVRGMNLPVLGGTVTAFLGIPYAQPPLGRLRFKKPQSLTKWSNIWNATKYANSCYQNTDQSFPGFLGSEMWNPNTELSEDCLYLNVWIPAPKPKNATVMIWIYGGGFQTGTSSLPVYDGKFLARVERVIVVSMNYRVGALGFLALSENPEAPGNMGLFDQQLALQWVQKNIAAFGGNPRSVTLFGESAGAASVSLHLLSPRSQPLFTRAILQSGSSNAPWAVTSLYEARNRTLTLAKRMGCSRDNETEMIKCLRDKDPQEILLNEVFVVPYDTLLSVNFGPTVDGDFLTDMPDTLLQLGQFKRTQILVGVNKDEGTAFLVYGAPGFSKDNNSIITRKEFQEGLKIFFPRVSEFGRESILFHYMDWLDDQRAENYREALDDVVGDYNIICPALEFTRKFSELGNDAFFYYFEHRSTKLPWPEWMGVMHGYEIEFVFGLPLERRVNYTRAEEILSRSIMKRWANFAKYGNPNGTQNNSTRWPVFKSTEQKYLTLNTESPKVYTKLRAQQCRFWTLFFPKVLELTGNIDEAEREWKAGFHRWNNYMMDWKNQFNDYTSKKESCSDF

Row | SMILES | IC50 (Acetylcholinesterase) | IC50 (Cholinesterase) | IC50 [1]
1 | Cc1c(C#N)c(=O)oc2cc(OCc3ccc(Cl)cc3)ccc12 | > 100 µM | > 100 µM | –
2 | O=c1cc(C(F)(F)F)c2ccc(OCCN3CCN(Cc4ccc(Br)cc4)CC3)cc2o1 | > 100 µM | > 100 µM | > 10 µM
3 | O=c1ccc2ccc(OCCN3CCCCC3)cc2o1 | 54.9 µM | – | –
4 | O=c1ccc2ccc(OCCN3CCN(Cc4ccc(Br)cc4)CC3)cc2o1 | > 100 µM | 50.1 µM | > 10 µM
5 | Cc1c(Cl)c(=O)oc2cc(OCCN3CCC(Cc4ccccc4)CC3)ccc12 | 31.3 µM | 1.27 µM | > 10 µM
6 | O=c1ccc2ccc(OCc3ccc(Br)cc3)cc2o1 | > 100 µM | > 100 µM | –
7 | Cc1c(C#N)c(=O)oc2cc(OCc3ccc(Br)cc3Br)ccc12 | > 100 µM | > 100 µM | 0.72 µM
8 | O=c1ccc2ccc(OCCN3CCC(Cc4ccccc4)CC3)cc2o1 | 36.7 µM | 20.3 µM | > 10 µM
9 | Cc1c(Cl)c(=O)oc2cc(OCc3ccc(Br)cc3)ccc12 | > 100 µM | > 100 µM | –
10 | Cc1c(C#N)c(=O)oc2cc(OCc3ccc(F)cc3)ccc12 | > 100 µM | > 100 µM | –
11 | Cc1cc(=O)oc2cc(OCCN3CCN(Cc4ccc(Br)cc4)CC3)ccc12 | 12.8 µM | 9.7 µM | > 10 µM
12 | O=c1cc(C(F)(F)F)c2ccc(OCc3ccc(Br)cc3)cc2o1 | > 100 µM | > 100 µM | > 10 µM
13 | Cc1c(C#N)c(=O)oc2cc(OCCN3CCC(Cc4ccccc4)CC3)ccc12 | 9.1 µM | 5.9 µM | > 10 µM
14 | Cc1c(C#N)c(=O)oc2cc(OCCN3CCN(Cc4ccc(Br)cc4)CC3)ccc12 | 38.5 µM | 13.3 µM | > 10 µM
15 | Cc1c(C#N)c(=O)oc2cc(OCc3ccccc3Br)ccc12 | > 100 µM | > 100 µM | > 10 µM
16 | Cc1cc(=O)oc2cc(OCCN3CCCCC3)ccc12 | 66.4 µM | – | –
17 | O=c1cc(C(F)(F)F)c2ccc(OCCN3CCC(Cc4ccccc4)CC3)cc2o1 | > 100 µM | > 100 µM | > 10 µM
18 | Cc1c(Cl)c(=O)oc2cc(OCc3ccccc3)ccc12 | > 100 µM | 0.96 µM | 2.13 µM
19 | Cc1c(C#N)c(=O)oc2cc(OCc3ccccc3)ccc12 | > 100 µM | 21.8 µM | 1.38 µM
20 | Cc1cc(=O)oc2cc(OCCN3CCC(Cc4ccccc4)CC3)ccc12 | 29.4 µM | 5.19 µM | > 10 µM
21 | Cc1cc(=O)oc2cc(OCc3ccc(Br)cc3)ccc12 | > 100 µM | > 100 µM | 0.05 µM
22 | Cc1c(Cl)c(=O)oc2cc(OCCN3CCN(Cc4ccc(Br)cc4)CC3)ccc12 | > 100 µM | 3.12 µM | > 10 µM
23 | Cc1c(C#N)c(=O)oc2cc(OCc3ccc(Br)cc3)ccc12 | > 100 µM | > 100 µM | –
